Values joined by “and” are separate entries in the source; they are usually repeats but may differ in a detail not shown here. Equal values may be shown once.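 Briefly, cells in 96-well plates were exposed to five compound concentrations for 48 h, and endpoints were estimated by linear interpolation. At the GI50, growth is halved. At the TGI there is no net growth.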
How the values were obtained:
Experiment in all cases: NCI-60 cell line screen, 48 h
SN12C renal = system: SN12C renal
NCI-H226 lung = system: NCI-H226 lung
OVCAR-8 ovarian = system: OVCAR-8 ovarian
LOX IMVI melanoma = system: LOX IMVI melanoma
K-562 leukemia = system: K-562 leukemia
SF-539 CNS = system: SF-539 CNS
M14 melanoma = system: M14 melanoma
CAKI-1 renal = system: CAKI-1 renal
U251 CNS = system: U251 CNS
HCT-15 colon = system: HCT-15 colon

Row | SMILES | GI50 (SN12C renal) | TGI (SN12C renal) | GI50 (NCI-H226 lung) | TGI (NCI-H226 lung) | GI50 (OVCAR-8 ovarian) | TGI (OVCAR-8 ovarian) | GI50 (LOX IMVI melanoma) | TGI (LOX IMVI melanoma) | GI50 (K-562 leukemia) | TGI (K-562 leukemia) | GI50 (SF-539 CNS) | TGI (SF-539 CNS) | GI50 (M14 melanoma) | TGI (M14 melanoma) | GI50 (CAKI-1 renal) | TGI (CAKI-1 renal) | GI50 (U251 CNS) | TGI (U251 CNS) | GI50 (HCT-15 colon) | TGI (HCT-15 colon)
1 | CC(C)(C)n1cc(-c2ccnc(NCCCNS(=O)(=O)c3ccc(C(F)(F)F)cc3)c2)c(-c2cccc(O)c2)n1 | 1.61 µM | 3.03 µM | 2.35 µM | 5.71 µM | 2.46 µM | 6.44 µM | 1.72 µM | 3.09 µM | 2.1 µM | > 100 µM | 1.65 µM | 3.09 µM | 2 µM | 3.93 µM | 1.99 µM | 4.21 µM | 1.71 µM | 3.53 µM | 1.47 µM | 2.93 µM
2 | C=C(C)C(=O)O[C@H]1CC(=C)[C@@H]2C[C@H](O)[C@](O)(CCl)[C@@H]2[C@H]2OC(=O)C(=C)[C@@H]21 | 4.09 µM | 17.1 µM | 19.6 µM | 46.2 µM | 3.24 µM | 12.8 µM | 1.8 µM | 3.39 µM | 1.8 µM | 4.59 µM | 1.98 µM | 4.35 µM | 2.78 µM | 6.88 µM | 1.94 µM | 3.45 µM | 2.47 µM | 6.14 µM | 1.89 µM | 4.42 µM
3 | CCS(CC)(CC)CC1CCCC2=CCC(P(=O)(c3ccccc3)c3ccccc3)CC21 (stereo not drawn) |  | 26.3 µM |  | 39.6 µM |  | 31.4 µM |  | 34.9 µM |  | 39.9 µM |  | 27.3 µM |  | 25.6 µM |  | 24.4 µM |  | 23.1 µM |  | 21.8 µM
4 | Cc1nn2c(/C=C3\C(=O)Nc4ccc(Cl)cc43)c(C)nc2s1 | > 100 µM | > 100 µM | > 100 µM | > 100 µM | 84.3 µM | > 100 µM | 83.1 µM | > 100 µM | 5.43 µM | > 100 µM | 45 µM | > 100 µM | 23.2 µM | > 100 µM | 26 µM | > 100 µM | 46.5 µM | > 100 µM | 13.9 µM | > 100 µM
5 | Nc1c(C(=O)c2cccc(-c3ccncc3)c2)cnn1-c1ccc(F)cc1F | 12.1 µM | > 25 µM | 4.36 µM | > 25 µM | 18.3 µM | > 25 µM | 14.3 µM | > 25 µM | 2.57 µM | > 25 µM | > 16.4 µM | > 25 µM | 6.58 µM | > 25 µM | 8.1 µM | > 25 µM | 12.6 µM | > 25 µM | 2.19 µM | > 25 µM
6 | Oc1ccccc1/C=C/c1csnn1 |  | > 100 µM |  | > 100 µM |  | > 100 µM |  | 99.1 µM |  | > 100 µM |  | > 100 µM |  | > 100 µM |  | > 100 µM |  | > 100 µM |  | > 94.3 µM
7 | COc1cc2c(c(OC)c1OC)-c1ccc(SC)c(=O)cc1C(CO)C2 (stereo not drawn) | < 0.01 µM | > 100 µM | < 0.01 µM | 0.59 µM and 0.138 µM | < 0.01 µM |  | < 0.01 µM | 19.8 µM | < 0.01 µM | 23.7 µM | < 0.01 µM |  | < 0.01 µM | < 0.01 µM | < 0.01 µM | > 100 µM | < 0.01 µM | 0.728 µM and 0.111 µM | < 0.01 µM | 0.723 µM and 1.3 µM
8 | COc1cc(OC(=O)c2ccccc2)cc2c1C(=O)C=CC2=O |  | 45 µM |  | 49.4 µM |  | 63.3 µM |  | 36.3 µM |  | 5.36 µM |  | 41.7 µM |  | 32.5 µM |  | 37 µM |  | 38.2 µM |  | 31.4 µM
9 | COc1ccc(Br)c(N/N=C2\CCCNC2=O)c1 |  | > 100 µM |  | > 100 µM |  | > 100 µM |  | > 100 µM |  | > 100 µM |  | > 100 µM |  | > 100 µM |  | 91.8 µM |  | > 100 µM |  | > 100 µM
10 | CCN(CC)CCCCNc1c2ccccc2[n+](C)c2c1[nH]c1ccccc12 | 0.0699 µM | 6.08 µM | 0.202 µM | 1.18 µM | 0.786 µM | 19.8 µM | 0.346 µM | 2.03 µM | 0.379 µM | 3.9 µM | 0.473 µM | 1.74 µM | 1.41 µM | 4.64 µM | 2.05 µM | 14.4 µM | 0.238 µM | 4.46 µM | 7.15 µM | > 70 µM
11 | COc1cc(CSc2nc3ccc(C)cc3c(=O)n2-c2ccccc2)cc(OC)c1OC | 4.56 µM | > 100 µM | 3.4 µM | > 100 µM | 4.51 µM | > 100 µM | 4.13 µM | > 100 µM | 0.534 µM | > 100 µM | 2.08 µM | 9.52 µM | 1.4 µM | > 100 µM | 2.79 µM | > 100 µM | 3.77 µM | > 100 µM | 0.577 µM | > 100 µM
12 | CN(O)c1nc(N(C)O)nc(N2CCOCC2)n1 | 7.48 µM | > 100 µM | 7.64 µM | > 100 µM | 3.85 µM | > 100 µM | 1.67 µM | > 100 µM | > 100 µM | > 100 µM | 4.1 µM | > 100 µM | 2.92 µM | 57 µM | 1.08 µM | > 100 µM | 1.25 µM | > 100 µM | 0.637 µM | > 100 µM
